Tested on: GNS166 cells
Assay: Label-free proteomics differential expression
Type: cell-based, human
Procedure: Proteomic studies were performed by the Proteomics Facility of the CIC bioGUNE by label-free relative quantification on nLC MS/MS. […] In both approaches, the top 20 enriched terms were plotted and the pathways were clustered using divisive hierarchical clustering based on pairwise Jaccard distances.

C#CCN(Cc1cc2cc(OCCCN3CCCCC3)ccc2n1S(=O)(=O)c1ccccc1)C(=O)CCCCCCC(=O)NO [DDI]
LogFC THG1_HUMAN (protein Q9NWX6): -0.1726 | Direction F120C_HUMAN (protein Q9NX05): Down | LogFC F120C_HUMAN (protein Q9NX05): -0.4931 | Direction IMPA3_HUMAN (protein Q9NX62): Down | LogFC IMPA3_HUMAN (protein Q9NX62): -2.939 | Direction NSMA3_HUMAN (protein Q9NXE4): Down | LogFC NSMA3_HUMAN (protein Q9NXE4): -1.089 | Direction TRM1_HUMAN (protein Q9NXH9): Down | LogFC TRM1_HUMAN (protein Q9NXH9): -1.158 | Direction GTSE1_HUMAN (protein Q9NYZ3): Down | LogFC GTSE1_HUMAN (protein Q9NYZ3): -2.523 | Direction F120A_HUMAN (protein Q9NZB2): Down | LogFC F120A_HUMAN (protein Q9NZB2): -0.8566 | Direction MYOF_HUMAN (protein Q9NZM1): Down | LogFC MYOF_HUMAN (protein Q9NZM1): -1.514 | LogFC SPN90_HUMAN (protein Q9NZQ3 GN=NCKIPSD): 0.408 | LogFC H2AW_HUMAN (protein Q9P0M6 GN=MACROH2A2): -2.056 | Direction RCC2_HUMAN (protein Q9P258): Down | LogFC RCC2_HUMAN (protein Q9P258): -0.788 | Direction MO4L1_HUMAN (protein Q9UBU8): Down | LogFC MO4L1_HUMAN (protein Q9UBU8): -1.829 | LogFC SE1L1_HUMAN (protein Q9UBV2 GN=SEL1L): 1.64 | Direction CSN7A_HUMAN (protein Q9UBW8): Down | LogFC CSN7A_HUMAN (protein Q9UBW8): -0.366 | Direction QCR9_HUMAN (protein Q9UDW1): Down | LogFC QCR9_HUMAN (protein Q9UDW1): -1.3801 | Direction ABCF2_HUMAN (protein Q9UG63): Down | LogFC ABCF2_HUMAN (protein Q9UG63): -0.9684 | LogFC SEC63_HUMAN (protein Q9UGP8 GN=SEC63): -0.6574 | Direction Z3H7B_HUMAN (protein Q9UGR2): Down | LogFC Z3H7B_HUMAN (protein Q9UGR2): -0.582 | Direction ABC3B_HUMAN (protein Q9UH17): Down | LogFC ABC3B_HUMAN (protein Q9UH17): -2.711 | LogFC PCYOX_HUMAN (protein Q9UHG3 GN=PCYOX1): 1.78 | Direction DDX20_HUMAN (protein Q9UHI6): Down | LogFC DDX20_HUMAN (protein Q9UHI6): -1.492 | LogFC NB5R1_HUMAN (protein Q9UHQ9 GN=CYB5R1): 0.825 | LogFC VATH_HUMAN (protein Q9UI12 GN=ATP6V1H): 0.8971 | LogFC PRAF1_HUMAN (protein Q9UI14 GN=RABAC1): -1.449 | LogFC DDX41_HUMAN (protein Q9UJV9 GN=DDX41): -0.9972 | LogFC CDC23_HUMAN (protein Q9UJX2 GN=CDC23): -0.6966 | Direction APC7_HUMAN (protein Q9UJX3): Down | LogFC APC7_HUMAN (protein Q9UJX3): -0.9681 | LogFC NOCT_HUMAN (protein Q9UK39 GN=NOCT): 0.6965 | LogFC CCNL1_HUMAN (protein Q9UK58 GN=CCNL1): -1.514 | LogFC BORG2_HUMAN (protein Q9UKI2 GN=CDC42EP3): 1.338 | LogFC DEN2A_HUMAN (protein Q9ULE3 GN=DENND2A): -2.086 | Direction HEG1_HUMAN (protein Q9ULI3): Down | LogFC HEG1_HUMAN (protein Q9ULI3): -2.228 | Direction PKHG1_HUMAN (protein Q9ULL1): Down | LogFC PKHG1_HUMAN (protein Q9ULL1): -2.254 | Direction HECD1_HUMAN (protein Q9ULT8): Down | LogFC HECD1_HUMAN (protein Q9ULT8): -1.1597 | Direction TPX2_HUMAN (protein Q9ULW0): Down | LogFC TPX2_HUMAN (protein Q9ULW0): -2.6733 | LogFC SYNRG_HUMAN (protein Q9UMZ2 GN=SYNRG): 0.8469 | Direction MAGD2_HUMAN (protein Q9UNF1): Down | LogFC MAGD2_HUMAN (protein Q9UNF1): -1.225 | Direction DIM1_HUMAN (protein Q9UNQ2): Down | LogFC DIM1_HUMAN (protein Q9UNQ2): -1.324 | Direction CP131_HUMAN (protein Q9UPN4): Down | LogFC CP131_HUMAN (protein Q9UPN4): -0.9726 | Direction TRI33_HUMAN (protein Q9UPN9): Down | LogFC TRI33_HUMAN (protein Q9UPN9): -0.5693 | LogFC BAIP2_HUMAN (protein Q9UQB8 GN=BAIAP2): 0.1397 | LogFC AKAP2_HUMAN (protein Q9Y2D5 GN=AKAP2): 0.8401 | Direction WBP11_HUMAN (protein Q9Y2W2): Down | LogFC WBP11_HUMAN (protein Q9Y2W2): -1.003 | LogFC RM11_HUMAN (protein Q9Y3B7 GN=MRPL11): -0.5878 | Direction UFC1_HUMAN (protein Q9Y3C8): Down | LogFC UFC1_HUMAN (protein Q9Y3C8): -1.4452 | Direction FBX7_HUMAN (protein Q9Y3I1): Down | LogFC FBX7_HUMAN (protein Q9Y3I1): -0.6256 | LogFC SAMH1_HUMAN (protein Q9Y3Z3 GN=SAMHD1): 0.753 | LogFC TRRAP_HUMAN (protein Q9Y4A5 GN=TRRAP): -1.346 | Direction ARIP4_HUMAN (protein Q9Y4B4): Down | LogFC ARIP4_HUMAN (protein Q9Y4B4): -1.479 | LogFC IRS2_HUMAN (protein Q9Y4H2 GN=IRS2): 2.2713 | Direction TBL2_HUMAN (protein Q9Y4P3): Down | LogFC TBL2_HUMAN (protein Q9Y4P3): -0.6001 | LogFC NDK7_HUMAN (protein Q9Y5B8 GN=NME7): 2.17 | Direction PCDGH_HUMAN (protein Q9Y5G0): Down | LogFC PCDGH_HUMAN (protein Q9Y5G0): -2.292 | LogFC CD2AP_HUMAN (protein Q9Y5K6 GN=CD2AP): 0.4294 | LogFC BZW2_HUMAN (protein Q9Y6E2 GN=BZW2): 0.8735 | LogFC OAS3_HUMAN (protein Q9Y6K5 GN=OAS3): -0.7466 | Direction WASF2_HUMAN (protein Q9Y6W5): Down | LogFC WASF2_HUMAN (protein Q9Y6W5): -1.033 | Direction NS1BP_HUMAN (protein Q9Y6Y0): Down | LogFC NS1BP_HUMAN (protein Q9Y6Y0): -2.1021 | LogFC S23IP_HUMAN (protein Q9Y6Y8 GN=SEC23IP): 0.5141 | Direction GLCNE_HUMAN (protein Q9Y223): Down | LogFC GLCNE_HUMAN (protein Q9Y223): -0.915 | LogFC HPSE_HUMAN (protein Q9Y251 GN=HPSE): 0.7253 | Direction EIF3L_HUMAN (protein Q9Y262): Down | LogFC EIF3L_HUMAN (protein Q9Y262): -0.4083 | Direction AAR2_HUMAN (protein Q9Y312): Down | LogFC AAR2_HUMAN (protein Q9Y312): -1.2504 | LogFC SKAP_HUMAN (protein Q9Y448 GN=KNSTRN): -1.456 | Direction TLN1_HUMAN (protein Q9Y490): Down | LogFC TLN1_HUMAN (protein Q9Y490): -0.5101 | LogFC PPME1_HUMAN (protein Q9Y570 GN=PPME1): 1.066 | LogFC FHOD1_HUMAN (protein Q9Y613 GN=FHOD1): 1.204 | LogFC JAM1_HUMAN (protein Q9Y624 GN=F11R): 1.904 | Direction GPC6_HUMAN (protein Q9Y625): Down | LogFC GPC6_HUMAN (protein Q9Y625): -2.082 | Direction S12A7_HUMAN (protein Q9Y666): Down | LogFC S12A7_HUMAN (protein Q9Y666): -2.1239 | LogFC EM55_HUMAN (protein Q00013 GN=MPP1): 0.8133 | Direction NAA25_HUMAN (protein Q14CX7): Down | LogFC NAA25_HUMAN (protein Q14CX7): -1.1158 | Direction PDS5A_HUMAN (protein Q29RF7): Down | LogFC PDS5A_HUMAN (protein Q29RF7): -1.029 | LogFC H1BP3_HUMAN (protein Q53T59 GN=HS1BP3): 2.722 | LogFC GL8D1_HUMAN (protein Q68CQ7 GN=GLT8D1): -1.2539
